Results published in patent US20260325542A1, “CANCER TARGETING COMPLEX, AND COMPOSITION COMPRISING SAME FOR PREVENTING OR TREATING CANCER” (EWHA UNIVERSITY - INDUSTRY COLLABORATION FOUNDATION, priority 2023, published 2026).

What was measured:
4T1 cells = test: CCK-8 assay, toxicity on cancer cells; type: cell-based, mouse; conditions: CCK-8, 48 hours
Experimental: The toxicity of ARV-771 and ECMal-PROTAC on cancer cells was analyzed by the CCK-8 (cell counting kit-8) assay. 4T1 cells were dispensed into a 96-well culture plate at 3×10^3 cells per well. They were cultured for 24 hours at 37° C. and 5% carbon dioxide atmosphere. The cells were treated with different concentrations of ARV-771 (0.01 to 100 μM), the complex for cancer targeting (ECMal-PROTAC) of example 1 (0.01 to 100 μM), and the complex for cancer targeting (Mal-PROTAC) of example 2 (0.01 to 100 μM) separately, and cultured for 48 hours. After exposing each well to 10% CCK-8-containing culture media for 30 minutes, the viability of 4T1 cells treated with ARV-771 or 4T1 cells treated with ECMal-PROTAC or Mal-PROTAC was analyzed with a microplate reader. The change in cell viability according to the concentration of ARV-771 or ECMal-PROTAC or Mal-PROTAC was calculated using GraphPad Prism 8 software (GraphPad Software, San Diego, CA, USA) by fitting the IC50 (haf-maximal inhibitory concentration) value.

c-Myc = test: Western blot of excised cancer tissue, c-Myc; type: in vivo, mouse
Experimental: (§1) The control group was administered saline (10 mg/kg) once every 3 days for 15 days through the tail vein (total 4 administrations). The comparison group was administered ARV-771 (10 mg/kg) once every 3 days for 15 days through the tail vein (total 4 administrations). The example group was administered ECMal-PROTAC 10 mg/kg (wquiv. to ARV-771) of example 1 once every 3 days for 15 days through the tail vein (total 4 administrations).

BRD4 [1] = target: T1, BRD4 (Mus musculus, UniProt Q9ESU6); test: Western blot of excised cancer tissue, BRD4; type: in vivo
T1 construct: Western blot after PROTAC (ARV-771 release, VHL recruiting)
Experimental: as §1

cancer tissue = test: TUNEL analysis of excised cancer tissue; type: in vivo, mouse; conditions: cancer tissue excised after 15 days
Experimental: (§2) Cancer animal models were prepared by inoculating 1×10^6 4T1 cells into the left thigh of the mice, and raising them until the tumor volume reached 50-80 mm^3.
as §1
The control group, the comparison group, and the example group were euthanized after 15 days, and major organs (heart, liver, lung, spleen, kidney) and cancer tissue were excised.
Furthermore, to analyze cancer cell apoptosis, TUNEL (terminal deoxynucleotidyl transferase dUTP nick end labeling) analysis was performed on cancer tissue excised from the control group, the comparison group, and the example group. Next, histological analysis was performed by H&E (hematoxylin & eosin) staining of the major organ tissues and cancer tissue of each excised group.

[2] = Particle size by DLS before and after binding to albumin; type: physicochemical; conditions: before and after binding to BSA
Experimental: A BSA solution (200 μM) diluted with PBS was co-incubated by mixing it with an ECMal-PROTAC aqueous solution (140 μM) of example 1 at a 1:1 volume ratio.

4T1 tumor = test: In vivo anticancer efficacy, tumor size in 4T1 cancer animal model; parameters: species or system mouse
Experimental: 5-week-old female Balb/c and Balb/c nu/nu mice were purchased from NaraBio, Inc (Seoul, Republic of Korea). The mice underwent a 2-week acclimatization period before the example. The mice were raised under free-feeding conditions in a breeding room maintained at a temperature of 22±2° C. and humidity of 40-60% during the example. The light and dark cycle was regulated at 12-hour intervals. All examples were conducted in compliance with the relevant laws and institutional guidelines of the KIST Institutional Animal Care and Use Committee (IACUC; Approval No.: 2021-143).
as §2
For the preparation of the control group, the comparison group, and the example group, mice were randomly divided into groups of 5.
as §1
Tumor size and body weight were measured every two days for the control group, the comparison group, and the example group.

BRD4 [3] = target: T1, BRD4; test: DAB staining of excised cancer tissue; type: in vivo; conditions: FIG. 34
Experimental: as §1
FIG. 34 is the result of DAB staining of cancer tissue excised from the control group, the comparison group, and the example group.

[4] = target: T2, BSA (bovine serum albumin) (Bos taurus, UniProt P02769); test: In vitro binding of ECMal-PROTAC to albumin (thiol-maleimide reaction), RP-HPLC; conditions: BSA 200 μM, ECMal-PROTAC 140 μM, 1:1 volume ratio
T2 construct: free Cys34 thiol reacts with maleimide
T2 sequence (P02769 25-607): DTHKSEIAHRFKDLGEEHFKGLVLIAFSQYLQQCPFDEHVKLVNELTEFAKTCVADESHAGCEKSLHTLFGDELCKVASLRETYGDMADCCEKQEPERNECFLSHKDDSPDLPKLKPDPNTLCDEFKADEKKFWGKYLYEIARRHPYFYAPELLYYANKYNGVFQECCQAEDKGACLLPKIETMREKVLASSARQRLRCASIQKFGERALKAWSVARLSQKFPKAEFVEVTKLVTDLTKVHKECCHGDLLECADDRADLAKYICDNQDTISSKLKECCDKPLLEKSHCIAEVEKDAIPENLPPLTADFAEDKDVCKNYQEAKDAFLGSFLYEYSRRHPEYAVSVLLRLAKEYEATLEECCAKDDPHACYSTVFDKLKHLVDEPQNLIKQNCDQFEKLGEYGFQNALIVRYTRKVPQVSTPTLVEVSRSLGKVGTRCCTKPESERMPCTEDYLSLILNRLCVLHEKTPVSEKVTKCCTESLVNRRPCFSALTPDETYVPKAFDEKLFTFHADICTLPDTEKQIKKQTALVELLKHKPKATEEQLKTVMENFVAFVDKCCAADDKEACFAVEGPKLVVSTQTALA
Experimental: The binding rate of ECMal-PROTAC from example 1 and albumin was confirmed through RP-HPLC. Specifically, a BSA solution (200 μM) diluted with PBS was co-incubated by mixing it with an ECMal-PROTAC aqueous solution (140 μM) of example 1 at a 1:1 volume ratio. The culture was collected at incubation times of 0 minutes, 5 minutes, 30 minutes, and 60 minutes. It was quenched with mercaptoethanol, and HPLC spectra for each sample were acquired through concentration gradient of the eluent (ACN/H2O, 20/80 to 80/20 (v/v), 30 minutes).
To verify the albumin binding ability of the complex for cancer targeting (ECMal-PROTAC) of example 1, the mixture of BSA and the complex for cancer targeting (ECMal-PROTAC) was analyzed by LC-MS spectrum, and compared with the LC-MS spectrum of free BSA.
FIG. 4 is the HPLC spectrum of a mixture of BSA and the complex for cancer targeting (ECMal-PROTAC). According to this, it can be seen that BSA and the complex for cancer targeting (ECMal-PROTAC) rapidly bind through a thiol-maleimide click chemical reaction. To confirm the albumin binding ability of the complex for cancer targeting (ECMal-PROTAC) of example 1, bovine serum albumin (BSA), which has a structure similar to human serum albumin (HSA), was used for analysis.
At this time, the HPLC spectra were also analyzed for a co-incubation of ARV-771 (140 μM) and BSA solution (200 μM) mixed at a 1:1 volume ratio as a comparative example, and for the ECMal-PROTAC solution and BSA solution alone without any treatment of example 1.
From the HPLC results for the BSA and complex for cancer targeting (ECMal-PROTAC) mixture in Experimental Example 1 and the thiol-blocked BSA and complex for cancer targeting (ECMal-PROTAC) mixture in Experimental Example 2, the reduction in the HPLC peak area associated with the complex for cancer targeting (ECMal-PROTAC) was quantified.

[5] = Western blot, vs ARV-771 group (so in the source)

BRD4 level in cancer tissue vs control (BRD4 [1]; Western blot, 10 mg/kg): much lower levels | BRD4 level in cancer tissue, example group vs comparison group (BRD4 [1]; [5]): no significant difference | relative expression level of BRD4, fold lower than control group (BRD4 [1]; cancer tissue, FIG. 32): 7.5 times | change in particle size on binding to albumin [2]: no significant change in particle size | BRD4 deficiency (DAB staining) (BRD4 [3]): BRD4 deficiency was confirmed | completion of thiol-maleimide reaction with BSA within 3 minutes ([4]; within 3 minutes): more than 75% | completion of thiol-maleimide reaction with BSA within 10 minutes ([4]; within 10 minutes): 100%
Structure (SMILES): Cc1ncsc1-c1ccc([C@H](C)NC(=O)[C@@H]2C[C@@H](OC(=O)CCCCn3nnc4c3CCC3C(CC4)C3COC(=O)NCCOCCOCCNC(=O)CCN3C(=O)C=CC3=O)CN2C(=O)[C@@H](NC(=O)COCCCOCCNC(=O)C[C@@H]2N=C(c3ccc(Cl)cc3)c3c(sc(C)c3C)-n3c(C)nnc32)C(C)(C)C)cc1 (stereo partly drawn) [ECMal-PROTAC]
IC50 compared to native ARV-771 (4T1 cells): slight increase in IC50 compared to native ARV-771 | IC50 (4T1 cells; Mus musculus, 4T1, FIGS. 15A and 15B, read-out: IC50 against cancer cells): 7.78 µM | c-Myc level in cancer tissue vs control (c-Myc; Western blot, 10 mg/kg): much lower levels | c-Myc level in cancer tissue, example group vs comparison group (c-Myc; [5]): no significant difference | relative expression level of c-Myc, fold lower than control group (c-Myc; cancer tissue, FIG. 32): 2.2 times | cancer cell apoptosis (TUNEL) (cancer tissue): cancer cell apoptosis was induced throughout the entire cancer tissue | cancer size / increase in cancer size (4T1 tumor; 10 mg/kg equiv. to ARV-771, 15 days): significantly reduced | tumor volume, fold smaller than comparison group (4T1 tumor; 10 mg/kg equiv. to ARV-771, after 15 days, vs ARV-771 10 mg/kg): 5.3 times | tumor volume, fold smaller than control group (4T1 tumor; 10 mg/kg equiv. to ARV-771, after 15 days, vs saline): 6.1 times | tumor volume after 15 days (4T1 tumor; 10 mg/kg equiv. to ARV-771, tail vein, once every 3 days for 15 days): 176.13±81.62 mm3 | tumor size (optical image) (4T1 tumor; excised after 15 days (FIG. 26)): much smaller tumor size than the other groups
